According to patent US20260248800A1, “FERROPTOSIS INHIBITORS AND USES THEREOF” (UNIVERSITY OF OTTAWA, priority 2022, published 2026):
Like-named read-outs stand apart in the source and are kept apart here.

Experiments:
[1] = H-bond acidity (α2^H) of the RTA by 1H NMR; type: physicochemical; conditions: estimated from the 1H NMR chemical shift difference of the amine proton in DMSO-d6 and benzene-d6
[2] = MeOAMVN-initiated co-autoxidation of STY-BODIPY and egg PC liposomes (FENIX); type: biochemical; conditions: for n (radical-trapping stoichiometry): MeOAMVN-initiated co-autoxidation of STY-BODIPY and egg PC liposomes; for kinh^lip (predicted/estimated): estimated from kinh^0 and effective β2^H of egg PC liposomes; for predicted increase in kinh^lip relative to PNX: predicted/estimated kinh^lip vs PNX
[3] = test system: Pfa-1 mouse embryonic fibroblasts (MEFs); assay: cells; conditions: Fibroblast
[4] = test system: Pfa-1 mouse embryonic fibroblasts (MEFs); conditions: RSL3-induced cell death (150 nM for 5 hours), AquaBluer
[5] = apparent inhibition rate constant, MeOAMVN-initiated autoxidation of egg PC liposomes, determined by absorbance (STY-BODIPY 10-20 μM, 565 nm)
[6] = 5 h, read-out: Pfa-1 MEF Ferroptosis EC50, RSL3-induced cell death (150 nM for 5 hours), AquaBluer
[7] = predicted from log kinh^0, α2^H and β2^H=0.69 using Eq. 4 (too reactive to be determined directly)
[8] = apparent inhibition rate constant, MeOAMVN-initiated autoxidation of egg PC liposomes, determined by fluorescence
[9] = Table 6, from survival curve of RSL3 induced ferroptosis of pfa-1 MEFS

Structure (SMILES) | α2^H [1] | n (radical-trapping stoichiometry) [2] | EC50 [3, 6] [nM] | kinh^lip [2, 8] | also measured
COc1ccc2c(c1)Oc1cc([N+](=O)[O-])ccc1N2 [Compound 17, 3-nitro-7-methoxyphenoxazine] | 0.60 | 2.9 ± 0.2 | 31 ± 1 |  | kinh^lip [2, 5]: (61 ± 4)e 10^5 M^−1s^−1
Cc1cc(C)c2c(c1)Oc1cc(C)cc(C)c1N2 [Compound 38, 1,3,7,9-Tetramethylphenoxazine] | 0.10 |  | 7.6 ± 0.2 |  | kinh^lip [2, 7]: 1500 ^f 10^5 M^−1s^−1
FC(F)(F)c1ccc2c(c1)Oc1ccccc1N2 [Compound 9, 3-trifluoromethylphenoxazine] |  | 3.0 ± 0.1 | 12 | (42 ± 2) 10^5 M^−1s^−1 | EC50 [3, 9]: 12 ± 1 nM
CC(c1ccc2c(c1)Nc1ccccc1O2)S(=O)(=O)N1CCN(C)CC1 (stereo not shown) [Compound 47, 2-(1-((4-methylpiperazin-1-yl)sulfonyl)ethyl)-10H-phenoxazine] |  |  | 45 ± 6 |  | EC50 [3, 9]: 45 ± 6 nM
CN1CCN(S(=O)(=O)c2ccc3c(c2)Oc2ccc(C(C)(C)C)cc2N3)CC1 [Compound 61, 2-tert-Butyl-7-(4-methylpiperazin-1-ylsulfonyl)-phenoxazine] |  |  | 15 ± 1 |  | 
CC(c1ccc2c(c1)Nc1ccccc1O2)S(=O)(=O)N1CCNCC1 (stereo not shown) [Compound 45, 2-(1-(piperazin-1-ylsulfonyl)ethyl)-10H-phenoxazine] |  |  | 13 ± 1 |  | EC50 [3, 9]: 13 ± 1 nM
COc1ccc2c(c1)Oc1cc(C#N)ccc1N2 [Compound 22, 3-Methoxy-7-cyanophenoxazine] | 0.55 | 3.1 ± 0.3 | 42 ± 6 |  | kinh^lip [2, 5]: (133 ± 15)^e 10^5 M^−1s^−1
CC(c1ccc2c(c1)Nc1ccccc1O2)S(=O)(=O)NCCN(C)C (stereo not shown) [Compound 43, N-(2-(dimethylamino)ethyl)-1-(10H-phenoxazin-2-yl)ethanesulfonamide] |  |  | 15 ± 1 |  | EC50 [3, 9]: 15 ± 1 nM
O=Cc1ccc2c(c1)Oc1cc(C=O)ccc1N2 [Compound 13, 3,7-Diformylphenoxazine] | 0.63 | 3.2 ± 0.1 | 340 ± 49 | (10 ± 1) 10^5 M^−1s^−1 | 
CC(c1ccc2c(c1)Nc1ccc(C(F)(F)F)cc1O2)S(=O)(=O)NCCN(C)C (stereo not shown) [Compound 44, N-(2-(dimethylamino)ethyl)-1-(7-(trifluoromethyl)-10H-phenoxazin-2-yl)ethanesulfonamide] |  |  | 2.2 ± 0.1 |  | Pfa-1 MEF Ferroptosis EC50 [4]: single-digit nanomolar potency; EC50 [3, 9]: 2.2 ± 0.1 nM
N#Cc1ccc2c(c1)Oc1cc(C=O)ccc1N2 [Compound 14, 3-Cyano-7-formylphenoxazine] | 0.64 |  |  | (7.1 ± 0.1) 10^5 M^−1s^−1 | EC50 ([3]; 5 h, read-out: Pfa-1 MEF Ferroptosis EC50): 240 ± 16 nM
CC(C)(C)c1ccc2c(c1)Oc1cc(C(C)(C)C)ccc1N2 [Compound 34, 3,7-di-tert-butylphenoxazine] |  |  | 7.4 ± 0.1 |  | kinh^lip [2, 7]: 1280 ^f 10^5 M^−1s^−1; EC50 [3, 9]: 7.4 ± 0.1 nM
N#Cc1ccc2c(c1)Oc1ccccc1N2 [Compound 20, 3-cyanophenoxazine] | 0.56 | 3.6 ± 0.1 | 58 ± 1 | (27 ± 2) 10^5 M^−1s^−1 | 
FC(F)(F)c1ccc2c(c1)Sc1ccccc1N2 [Compound 26, 3-trifluoromethylphenothiazine, reference compound] | 0.45 | 2.6 ± 0.1 | 41 ± 5 | (9.8 ± 0.5) 10^5 M^−1s^−1 | 
CC(C)(C)c1ccc2c(c1)Nc1cc(C(C)(C)C)ccc1O2 [Compound 33, 2,8-di-tert-butylphenoxazine] |  |  | 7.2 ± 0.4 |  | kinh^lip [2, 7]: 730 ^f 10^5 M^−1s^−1; EC50 [3, 9]: 7.2 ± 0.4 nM
Cc1cccc2c1Nc1c(C)cccc1O2 [Compound 36, 1,9-Dimethylphenoxazine] | 0.12 |  | 14 |  | kinh^lip [2, 7]: 1150 ^f 10^5 M^−1s^−1
Cc1cc(C)c2c(c1)Nc1cc(C)cc(C)c1O2 [Compound 37, 2,4,6,8-Tetramethylphenoxazine] | 0.39 |  | 9.6 ± 0.2 |  | kinh^lip [2, 7]: 1500 ^f 10^5 M^−1s^−1
c1ccc2c(c1)Nc1cc3ccccc3cc1S2 [Compound 5, 12H-Benzo[b]phenothiazine, reference compound] | 0.40 | 1.9 ± 0.1 | 7.8 ± 0.2 | (51 ± 3) 10^5 M^−1s^−1 | 
CCN(CC)S(=O)(=O)c1ccc2c(c1)Oc1ccccc1N2 [Compound 65, N,N-diethyl-3-sulfonamidephenoxazine] |  |  | 31 ± 1 |  | 

Structure (SMILES) | α2^H [1] | n (radical-trapping stoichiometry) [2] | EC50 [3, 6] [nM] | kinh^lip [2, 8] | also measured
CC(c1ccc2c(c1)Nc1ccc(C(F)(F)F)cc1O2)S(=O)(=O)N1CCN(C)CC1 (stereo not shown) [Compound 48, 2-(1-((4-methylpiperazin-1-yl)sulfonyl)ethyl)-7-(trifluoromethyl)-10H-phenoxazine] |  |  | 16 ± 2 |  | EC50 [3, 9]: 16 ± 2 nM
Cc1ccc2c(c1)Oc1cc(C#N)ccc1N2 [Compound 21, 3-Methyl-7-cyanophenoxazine] | 0.55 | 3.5 ± 0.1 | 22 ± 5 | (44 ± 6) 10^5 M^−1s^−1 | 
COc1ccc2c(c1)Oc1cc(OC)ccc1N2 [Compound 40, 3,7-dimethoxyphenoxazine] | 0.40 |  | 11 |  | kinh^lip (predicted/estimated) [2]: 6e+06 M⁻¹ s⁻¹; kinh^lip [2, 7]: 6530 ^f 10^5 M^−1s^−1
c1ccc2c(c1)Nc1ccccc1[Se]2 [Compound 3, phenoselenazine, reference compound] | 0.36 | 2.3 ± 0.1 | 23 ± 2 |  | kinh^lip [2, 5]: (56 ± 3)^e 10^5 M^−1s^−1
COc1ccc2c(c1)Oc1ccccc1N2 [Compound 39, 3-methoxyphenoxazine] | 0.42 |  | 12 |  | kinh^lip [2, 7]: 1490 ^f 10^5 M^−1s^−1; predicted increase in kinh^lip relative to PNX [2]: 6.7 fold
O=Cc1ccc2c(c1)Sc1ccccc1N2 [Compound 27, 3-formylphenothiazine, reference compound] | 0.47 | 2.2 ± 0.1 | 140 ± 10 | (14 ± 1) 10^5 M^−1s^−1 | 
O=[N+]([O-])c1ccc2c(c1)Oc1ccccc1N2 [Compound 15, 3-nitrophenoxazine] | 0.62 | 2.2 ± 0.1 | 43 |  | kinh^lip [2, 5]: (10 ± 1)^e 10^5 M^−1s^−1
Cc1c(C)c2c(c(C)c1O)CCC(C)(C)O2 [PMC, 2,2,5,7,8-Pentamethyl-6-chromanol, reference compound] | 0.38 | (2) | 360 ± 30 | (29 ± 2) 10^5 M^−1s^−1 | kinh^lip (predicted/estimated) [2]: 35000 M⁻¹ s⁻¹; kinh^lip ([2]; measured in MeOAMVN-initiated autoxidation of egg PC liposomes): 29000 M⁻¹ s⁻¹
CC(C)(C)c1ccc2c(c1)Nc1ccc(S(=O)(=O)N3CCNCC3)cc1O2 [Compound 60, 2-tert-Butyl-7-(piperazin-1-ylsulfonyl)-phenoxazine] |  |  | 3 ± 0.2 |  | EC50 [3, 9]: 3 ± 0.2 nM
COc1ccc2c(c1)Sc1cc(OC)ccc1N2 [Compound 32, 3,7-dimethoxyphenothiazine, reference compound] | 0.34 |  | 9 |  | kinh^lip [2, 7]: 840 ^f 10^5 M^−1s^−1; predicted increase in kinh^lip relative to PNX [2]: 3.8 fold
O=[N+]([O-])c1ccc2c(c1)Oc1cc([N+](=O)[O-])ccc1N2 [Compound 19, 3,7-Dinitrophenoxazine] | 0.72 |  | 405 |  | kinh^lip [2, 5]: (1.3 ± 0.1)^e 10^5 M^−1s^−1
N#Cc1ccc2c(c1)Oc1cc([N+](=O)[O-])ccc1N2 [Compound 23, 3-cyano-7-nitrophenoxazine] | 0.69 |  | 455 ± 19 |  | kinh^lip [2, 5]: (1.6 ± 0.1)^e 10^5 M^−1s^−1
Cc1ccc2c(c1)Oc1cc([N+](=O)[O-])ccc1N2 [Compound 16, 3-Methyl-7-nitrophenoxazine] | 0.60 | 3.8 ± 0.3 | 15 ± 1 |  | kinh^lip [2, 5]: (23 ± 2)^e 10^5 M^−1s^−1
CC(c1ccc2c(c1)Nc1ccc(C(F)(F)F)cc1O2)S(=O)(=O)N1CCNCC1 (stereo not shown) [Compound 46, 2-(1-(piperazin-1-ylsulfonyl)ethyl)-7-(trifluoromethyl)-OH-phenoxazine] |  |  | 3 ± 0.1 |  | Pfa-1 MEF Ferroptosis EC50 [4]: single-digit nanomolar potency; EC50 [3, 9]: 3 ± 0.1 nM
CCN(CC)c1ccc2c(c1)Oc1cc([N+](=O)[O-])ccc1N2 [Compound 18, N,N-diethyl-3-amine-7-nitrophenoxazine] | 0.58 | 2.4 ± 0.4 | 14 ± 2 |  | kinh^lip [2, 5]: (177 ± 37)^e 10^5 M^−1s^−1
c1ccc2c(c1)Nc1cc3ccccc3cc1O2 [Compound 4, 12H-Benzo[b]phenoxazine] | 0.49 | 2.4 ± 0.1 | 5.2 ± 0.9 | (101 ± 12) 10^5 M^−1s^−1 | 
O=[N+]([O-])c1ccc2c(c1)Sc1ccccc1N2 [Compound 28, 3-nitrophenothiazine, reference compound] | 0.52 | 2.0 ± 0.1 | 140 ± 18 | (5.3 ± 0.3) 10^5 M^−1s^−1 | 
Cc1cccc2c1Nc1c(C)cccc1S2 [Compound 31, 1,9-dimethylphenothiazine, reference compound] | 0.06 | 1.7 ± 0.1 | 35 ± 2 | (98 ± 5) 10^5 M^−1s^−1 | 
